{"source": "patent US20240116863A1", "about": "“DIPHENYL THIOUREA AND DIPHENYL UREA DERIVATIVES AS INHIBITORS OF ENDOCYTOSIS” (priority 2022, published 2024)", "key": {"[1]": {"tested_on": "transferrin endocytosis in A549 cells", "format": "cell-based", "settings": "10 μM"}, "[2]": {"tested_on": "EGF endocytosis in A549 cells", "format": "cell-based", "settings": "10 μM"}, "[3]": {"tested_on": "cholera toxin B (CTXB) endocytosis in A549 cells", "format": "cell-based", "settings": "10 μM"}, "[4]": {"tested_on": "organelle acidification in A549 cells", "format": "cell-based", "settings": "10 μM, 1 h"}, "A549 cells": {"tested_on": "A549 cells", "format": "cell-based, Human", "method": "Human lung epithelial cells (A549) were seeded in a 96-well optical-bottom plate. When the cells reached 70-80% confluency, the cells were treated with the compounds (DPUDs and DPTUD) dissolved in DMSO) (50 ∥M) for 12 h at 37° C. Following treatment, the cells were washed with PBS and fixed with 4% formaldehyde for 20 min at room temperature. Nucleus was stained with Hoechst diluted in PBS (1:10000). High-content microscopy and image analysis were performed to quantitate cell number (FIG. 3). All data are represented as mean±SD. The P-value was determined using one-way ANOVA with multiple comparisons w.r.t. DMSO. ns: P>0.05, *P<0.05, **P<0.01, ***P<0.001, ****P<0.0001."}, "[5]": {"tested_on": "SARS-CoV-2 Delta (B.1.617.2) and Omicron (B.1.1.529) strains", "assay": "Infection of Vero-E6 cells with additional SARS-CoV-2 strains", "format": "cell-based"}, "IAV (WSN) [6]": {"tested_on": "IAV (WSN)", "format": "cell-based, influenza A virus"}, "IAV (WSN) [7]": {"tested_on": "IAV (WSN)", "format": "in vivo, C57BL/6 mice"}, "IAV (X-31)": {"tested_on": "IAV (X-31)", "format": "cell-based, influenza A virus", "settings": "10 μM, A549 cells"}, "cellular endocytosis": {"tested_on": "cellular endocytosis", "settings": "cited from earlier work"}}, "note": "“Also recorded” adds a separate entry of the source. Where two headings read alike, the source gives them in different places.", "data": [{"molecule": "FC(F)(F)c1cc(NC(=S)Nc2cc(C(F)(F)F)cc(C(F)(F)F)c2)cc(C(F)(F)F)c1", "note": "[DPTUD, 1,3-bis(3,5-bis(trifluoromethyl)phenyl)thiourea]", "values": [{"measurement": "transferrin uptake", "setting": "[1]", "result": "significantly blocked"}, {"measurement": "EGF uptake", "setting": "[2]", "result": "significantly blocked"}, {"measurement": "cholera toxin B (CTXB) uptake", "setting": "[3]", "result": "significantly blocked"}, {"measurement": "organelle acidification (LysoTracker-positive signal)", "setting": "[4]", "result": "robustly inhibited"}, {"measurement": "cytotoxicity", "setting": "A549 cells; 50 μM, 12 h, A549 cells", "result": "did not show cytotoxicity"}]}, {"molecule": "O=C(Nc1cc(C(F)(F)F)cc(C(F)(F)F)c1)Nc1cc(C(F)(F)F)cc(C(F)(F)F)c1", "note": "[DPUD-1, 1,3-bis(3,5-bis(trifluoromethyl)phenyl)urea]", "values": [{"measurement": "effect on infection with SARS-CoV-2 Delta and Omicron", "setting": "[5]", "result": "highly effective; also recorded: Reduced infection"}, {"measurement": "IAV (WSN) titre in virus plaque assay", "setting": "IAV (WSN) [6]", "result": "significant reduction"}, {"measurement": "body weight recovery of the infected mice", "setting": "IAV (WSN) [7]; […], 1 mg/kg i.p. twice daily 5 days", "result": "most effective"}, {"measurement": "lung viral titres (RT-PCR of NP gene and plaque assay)", "setting": "IAV (WSN) [7]; mouse, in vivo", "result": "significant reduction"}, {"measurement": "survival of infected mice", "setting": "IAV (WSN) [7]; mouse, in vivo", "result": "Better survival"}, {"measurement": "virus particle internalization in live cells", "setting": "IAV (X-31)", "result": "majority of the virus particles failed to enter the cells"}]}, {"molecule": "O=C(Nc1ccc(C(F)(F)F)cc1)Nc1ccc(C(F)(F)F)cc1", "note": "[DPUD-2, 1,3-bis(4-(trifluoromethyl)phenyl)urea]", "values": [{"measurement": "effect on infection with SARS-CoV-2 Delta and Omicron", "setting": "[5]", "result": "highly effective; also recorded: Reduced infection"}]}, {"molecule": "O=C(Nc1cc(F)cc(F)c1)Nc1cc(F)cc(F)c1", "note": "[DPUD-16, 1,3-bis(3,5-difluorophenyl)urea]", "values": [{"measurement": "effect on infection with SARS-CoV-2 Delta and Omicron", "setting": "[5]", "result": "Reduced infection"}]}, {"molecule": "O=C(Nc1ccc(OC(F)(F)F)cc1)Nc1ccc(OC(F)(F)F)cc1", "note": "[DPUD-20, 1,3-bis(4-(trifluoromethoxy)phenyl)urea]", "values": [{"measurement": "effect on infection with SARS-CoV-2 Delta and Omicron", "setting": "[5]", "result": "Reduced infection"}]}, {"molecule": "O=C(Nc1cc(Br)cc(Br)c1)Nc1cc(Br)cc(Br)c1", "note": "[DPUD-23, 1,3-bis(3,5-dibromophenyl)urea]", "values": [{"measurement": "effect on infection with SARS-CoV-2 Delta and Omicron", "setting": "[5]", "result": "highly effective; also recorded: Reduced infection"}]}, {"molecule": "CN(C)CCCN1c2ccccc2Sc2ccc(Cl)cc21", "note": "[chlorpromazine, reference compound]", "values": [{"measurement": "cytotoxicity", "setting": "A549 cells; human", "result": "> 75", "unit": "%"}, {"measurement": "inhibitory concentration of known endocytosis inhibitor", "setting": "cellular endocytosis; 7× higher than the derivatives", "result": 70, "unit": "µM"}]}, {"molecule": "methyl-β-cyclodextrin", "values": [{"measurement": "inhibitory concentration of known endocytosis inhibitor", "setting": "cellular endocytosis; 100× higher than the derivatives", "result": 1000, "unit": "µM"}]}]}
